Measurements as given in patent US20260256772A1, “BENZOTHIAZOLE COMPOUND AND USE THEREOF” (NANJING REJU THERAPEUTICS, INC., priority 2022, published 2026).

What was measured:
[1] = cited from earlier work
senescent cells = assay: Senescent cell killing, CellTiter-Glo cell viability; type: cell-based, human, mouse; conditions: activity of killing senescent cells; cell type not specified
Excerpt: In this test example, human non-small cell lung cancer cell line (A549 cells), human embryonic lung fibroblast cell line (IMR90 cells), human retinal pigment epithelial cells (RPE cells), mouse chondrocytes, and mouse skin fibroblasts were selected. The above cells were induced by etoposide ([…]) to obtain their senescent cells. The effect of the target compounds on the viability of normal and senescent cells above was examined, thus assessing the specific killing effect of the compounds on senescent cells above.
Briefly, senescent and normal cells above were selected and plated separately (96-well plates). […] 2A to 2E.

platelets [2] = assay: Platelet toxicity test in mice (platelet count); type: in vivo; conditions: mice, 0.5 mg/kg single intraperitoneal injection, blood at 6 hours, FIG. 1
Procedure: In this test example, C57 mice were chosen to detect the effect of the target compounds on platelets.
7 to 8 weeks old […] mice were randomly divided into vehicle group and compound group. The test compound (0.5 mg/kg) or blank vehicle was administrated via single intraperitoneal injection. Blood was collected from the retroorbital venous plexus of the mice at 6 hours, and placed in a blood routine tube containing anticoagulant EDTA-K2. After shaking gently, the blood physiological indicators were measured using a hematology analyzer, with the platelet count as the target parameter for this platelet toxicity test.

[3] = rats; cited from earlier work
[4] = Solubility test in pure water; type: physicochemical
Procedure: The following test protocol was used for the solubility tests of the compounds of the present invention:
1). The compounds to be tested were precisely weighed respectively, and formulated to a corresponding concentration (l mg/mL or 10 mg/mL) by adding a corresponding volume of pure water vortically shook for 1 minute every 3 minutes for 15 minutes to observe the dissolution, and then the dissolution was observed again after standing for 1 hour. 2). 0.2 mL of 1 mg/mL compound or sodium salt thereof was took, diluted to 0.1 mg/mL respectively by adding 1.8 mL water, vortically shook for 5 minutes to observe the dissolution, and then the dissolution was observed again after standing for 1 hour. 3). 1 mL of 1 mg/mL compound or sodium salt thereof was took, diluted to 0.5 mg/mL by adding 1 mL water, vortically shook for 5 minutes to observe the dissolution, and then the dissolution was observed again after standing for 1 hour.

platelets [5] = conditions: under in vivo conditions; cited from earlier work

Cc1c(-c2ccc(N3CCc4cccc(C(=O)Nc5nc6ccccc6s5)c4C3)nc2C(=O)O)cnn1CC12CC3CC(CC(C3)C1)C2 [Compound A-1331852]
solubility in water [1]: low solubility in water
IC50 (senescent cells): 0.2 to 1 µM
platelet toxicity (platelet count) (platelets [2]): severe platelet toxicity
oral bioavailability [3]: about 11%
During shaking ([4]; formulated concentration 0.10 mg/mL in pure water): Visible solute particles
During shaking ([4]; formulated concentration 1 mg/mL in pure water): Visible solute particles
platelet toxicity (platelets [5]): significant platelet toxicity
